Consider five compounds from patent publication US20260083698A1, “Synergistic Stimulation of Mucociliary Clearance to Treat Mucus Obstruction in Cystic Fibrosis and Other Muco-Obstructive Disorders” (The Board of Trustees of the Leland Stanford Junior …, priority 2022, published 2026).

The subject of assay [1] is pig tracheal mucosa. Nature of the assay: Short circuit current (Isc) and conductance, Ussing chamber, pig. Particulars: pig tracheal mucosa; sequential 10 μM forskolin, 0.3 μM carbachol, 10 μM benzamil, 20 μM BPO-27, 200 μM niflumic acid. The text has this:
FIG. 4. Combined agonists inhibit sodium absorption and stimulate anion secretion by surface epithelia. (A) Cartoon of two electrogenic, ion transport pathways across airway apical epithelium: anion secretion increases surface fluid, Na+ absorption decreases surface fluid. The two pathways have opposite effects on fluid depth, but additive effects on short circuit current (Isc) because of their opposite valence and transport directions. (B) Raw trace of Isc across pig tracheal epithelium using Chart 4 software. After reaching a stable, unstimulated Isc (here, >2 h post-mounting), 10 μM forskolin, 0.3 μM carbachol, 10 μM benzamil, 20 μM benzopyrimido-pyrrolo-oxazinedione (BPO-27) and 200 μM niflumic acid were sequentially added at times shown. (C, D) Pig tracheal mucosa: averaged Δ Isc plots over time in response to (C) forskolin alone followed by forskolin+carbachol and (D) reversed order of agonist addition. (E & F) Ferret tracheal mucosa: averaged A Isc plots with same protocol as for pigs. Pig traces (C, D) are based on 10-12 experiments with tissues from 6 to 7 pigs. Ferret traces (E, F) are from 7 experiments with tissues from 5 ferrets.
Combined agonists stimulate epithelial surface anion secretion and inhibit Na^+ absorption. The surface epithelia also modify ASL. FIG. 4A is a cartoon of the main ion flows controlling ASL depth: anion-mediated fluid secretion increases, and Na^+-mediated fluid absorption decreases ASL depth. It was hypothesized that the combined agonists increase ASL depth and thus MCCV by stimulating secretion and inhibiting absorption (see also FIG. 6). […] With no counterbalancing absorption ASL depth is predicted to increase (dotted gold line in FIG. 6A) unless MCCV increases.
Inhibiting Na+ absorption would increase net fluid accumulation on the surface. […]
Electrophysiology. […] Total tissue conductance was calculated by applying Ohm's law to the Isc deflection resulting from a 1 mV pulse across the tissues every 20 s during the experiment. […]

Assay [2] concerns WT piglet tracheas. Kind of assay: Mucociliary clearance velocity (MCCV) in ex vivo WT piglet tracheas. On the set-up: species or system pig. Here is the method: MCCV in tracheas was measured from 2 to 5 days old WT piglets (see “Methods” section for details). […] The 8 piglet tracheas were divided into two groups and tested 4 by applying forskolin first and 4 by applying carbachol first, followed by the combined agonists.
These experiments used forskolin to elevate cAMP.
Pig tissues. Newborn WT piglet tracheas (2-5 days old) were directly obtained at the swine facility of UC Davis or from the laboratory of David Stoltz, University of Iowa, via overnight priority express. Postmortem (<1 h) tracheas from young adult Yorkshire pigs (30-50 kg) and 5-12 months old M. putorius ferrets were from animal facilities at Stanford and Gilroy/CA. All methods using animal tracheae were carried out in accordance with relevant guidelines and regulations of Stanford University and animal protocols were approved (Stanford IACUC protocol#: 10,048). Piglet tracheas were shipped in DMEM cell culture medium, other animal tissues were transported to the laboratory in cold PhysioSol™ solution (Hospira, IL/USA) and then transferred to icecold Krebs Ringer bicarbonate (KRB) buffer gassed with 95% O2 and 5% CO2 and kept at 4° C. until use. The KRB buffer contained (in mM): 115 NaCl, 25 NaHCO3, 2.4 K2HPO4, 0.4 KH2PO4, 1.2 MgCl2, 1.2 CaCl2, 10 glucose, and 1.0 μM indomethacin, adjusted to pH 7.2 and ˜290 mOsm at room temperature.
MCCV measurement. Details are in the previous reports (16,59,60). Briefly, each whole length ferret or piglet trachea, or a CF tracheal trim, was cut open along the mid-dorsal line and mounted mucosal side up onto a Sylgard elastomer platform. […] The prepared trachea was placed into a sealed, humidified chamber bubbled continuously with gas (95%/5%-O2/CO2) with the serosal surface bathed with KRB buffer±drugs. […] Then excess apical solution was drained, and tissue was incubated for an additional 10 min before starting baseline measurements of MCCV. Drugs were added by bath replacement with pre-warmed bath+drug(s). Summary MCCV data are reported as a single number and based on the averaged MCCV during the last 20 min of the treatment period unless stated otherwise.
MCCV (all values are in mm/min) was then measured for 90-120 min and plotted as MCCV vs time and agonist(s) in FIG. 8.
It was hypothesized that the synergistic MCC induced by β-adrenergic and cholinergic agonists involved ENaC inhibition.

Assay [3] relates to ex vivo WT pig tracheas. Nature of the assay: ASL height by synchrotron-based phase contrast imaging. Particulars: 10 μM formoterol (T30-T50); synergy agonists (T65-T85). Here is the method:
ASL heights were determined in pig tracheal preparations using synchrotron-based phase contrast imaging (PCI). The synchrotron beamline produces enough parallel spatial coherence X-ray to increase the contrast between airway lumen and ASL layer by PCI. When X-rays pass through the intact tracheal preparation, the difference in refractive index between ASL and airway lumen results in a phase shift of X-rays that causes a distinctive interference pattern shown on the charge-coupled device (CCD) detector as variations in X-ray intensity.

Assay [4] concerns sheep with induced CF airway disease. Nature of the assay: Tracheal mucus velocity (TMV) in sheep CF model (CFTRinh172 + hNE). Format: in vivo. Particulars: inhalation, 20 μg Formoterol.
Protocol: Briefly, adult sheep are placed in an upright position in a specialized body harness and under local anesthesia the animals are nasally intubated with a standard endotracheal (ET) tube. Tracheal mucus velocity (TMV), the in vivo equivalent of MCCV, is measured by a fluoroscopic technique. Five to seven radiopaque Teflon/bismuth trioxide disks (1 mm in diameter, 0.8-mm in thickness, and 1.8 mg in weight) are insufflated into the mid-portion of the animal's trachea. Once the disks are delivered into the trachea, the cephalad-axial velocity of each individual disk is recorded on videotape from a portable image intensifier unit in-line with the fluoroscope. The mean value of all the disk velocities is calculated for a given time point, with new disks insufflated pat subsequent time points. After baseline values are determined, animals receive by aerosolization 10 mg of CFTRinh172 and TMV measurements are repeated hourly for the following 2 hours. Then the animals receive by aerosolization 1190 mU of human Neutrophil Elastase (hNE) and TMV measurements are repeated hourly for the following 2 hours. […] Methacholine alone was not tested as this will induce severe bronchospasm and compromise the life of the animal. After test agent administration by inhalation, the TMV was measured hourly for 12 hours and at 24 hours.
The test system of assay [5] is piglet tracheal rings. Kind of assay: Airway narrowing: lumen area of thin sliced tracheal rings, methacholine. On the set-up: species or system pig. Particulars: 0.3 or 0.6 mM methacholine alone.
Protocol: Airway smooth muscle contraction measurement. Two methods were used to measure tracheal smooth muscle contraction. One is designed to measure airway narrowing using thin sliced tracheal rings. Piglet or ferret tracheal ring preparations of ˜2 mm were submerged and securely pinned on a Sylgard-lined Petri dish filled with KRB solution at 37° C. and pH 7.4. Digital images of tracheal ring contractions in response to agonists for 1-10 min intervals were recorded with a Nikon digital camera and the inner lumen surface area of the tracheal ring was calculated using ImageJ (NIH, MD/USA). The other method is using a force transducer. One end of an isolated ferret trachealis muscle bundle was secured in a Sylgard-lined Petri dish filled with KRB solution and the other end was attached by 26-gauge wire to a previously calibrated strain gauge (series 400A force transducer system, Cambridge Technology, MA/USA).

Each structure is given as a SMILES string.

`Cn1c(=O)c2c(-c3ccccc3)n3c(c2n(C)c1=O)C(c1ccc(Br)o1)Oc1ccc(C(=O)O)cc1-3` (centres unmarked) [BPO-27, benzopyrimido-pyrrolo-oxazinedione]: the “effect on Isc, raw trace” value in assay [1] was “steep drops in Isc and conductance”.

Turning to `NC(=NCc1ccccc1)NC(=O)c1nc(Cl)c(N)nc1N` [benzamil], in assay [2] (10 μM benzamil vs without benzamil, piglets), the “increase of baseline MCCV by ENaC inhibition” value is given as around 6 times. For the same compound, the “baseline MCCV with benzamil” value in assay [2] (10 μM benzamil, no agonists, piglets) turned out to be 3.0±0.7 mm/min. On to `COc1ccc(CC(C)NCC(O)c2ccc(O)c(NC=O)c2)cc1` (centres unmarked) [formoterol], for which the “average rate of ASL height increase” value in assay [3] amounted to 1.7±0.1 μm/min. The “effect on TMV compared to the control” value in assay [4] was “barely had any effect”. On to `CC(=O)OC(C)C[N+](C)(C)C` (centres unmarked) [methacholine], for which the “sustained reduction of lumen area” value in assay [5] is recorded as 20-40%. Further, the “effect on MCCV” value in assay [2] (piglet tracheas, 10 μM formoterol or 0.3 μM methacholine alone) was “only a small increase”. For `O=C(O)c1cccnc1Nc1cccc(C(F)(F)F)c1` [niflumic acid], the “effect on Isc, raw trace” value in assay [1] is “steep drops in Isc and conductance”.
